Columns and labels:
Experiment in all cases: Phenotype microarray metabolic activity
Type in all cases: cell-based
[1] = test system: Actinomyces naeslundii; details: for metabolic activity: OD 492 nm divided by OD of control (control = 1): A naeslundii
Method: (§1) The extent of metabolic activity of the tested bacteria in the presence of the above-mentioned saccharides after 24 hours and 48 hours was investigated through a high throughput phenotype microarray system (PM) for microbial cells (Biolog Inc.). Each PM can contain up to 95 different biochemical compounds (e.g. saccharides) that may act as substrates for bacteria as well as one negative control, not containing the substrates. Microarray plates were used in which the different wells of each plate were pre-loaded (by the manufacturer, Biolog Inc.) with different saccharides to be tested. Each bacterial species was tested using a separate microarray plate. Thus, a single bacterial species was tested with a variety of saccharides on each particular plate. The microarrays are based on redox technology, using cell respiration as a universal reporter. Active cell respiration results in the reduction of a tetrazolium dye and in the formation of a strong color—for example, when using the tetrazolium dye “Biolog Redox Dye Mix D”, the color changes from transparent/colorless to purple when the dye is reduced. The observation of this color change indicates which of the substrates improve the metabolic activity and health of the cells.
(§2) Each bacterial species was collected from blood agar plates (incubated for 48 hours anaerobically at 37° C.) and transferred to an IF-0 Base inoculation fluid (Biolog Inc.), which is a nutritionally poor medium. The resulting cell suspension was adjusted to a transmittance of 42% (relative to the transmittance of the base inoculation fluid with no bacterial species present) at 492 nm using a BioRad SmartSpec 3000 Photometer (the adjustment being effected by adding either further inoculation fluid or further bacteria until the transmittance of 42% was achieved). A 1:5 dilution of this suspension was prepared by mixing 3 mL of the 42% transmittance cell suspension with 15 mL of an inoculation fluid (which inoculation fluid was formed by mixing 11.6 mL sterile water, 62.5 mL IF-0 base inoculation fluid and 0.9 mL of the tetrazolium dye “Biolog Redox Dye mix D”), resulting in a final cell density which was equal to 85% transmittance using a BioRad SmartSpec 3000 Photometer. For each of the saccharides tested, the microarray plate (obtained from the supplier (Biolog Inc.) with saccharides already present in the relevant wells in powder form) was directly inoculated with 100 μL/well of this 85% transmittance cell suspension.
(§3) All plates were incubated in an anaerobic atmosphere at 37° C. Color changes were measured spectrophotometrically at 492 nm (Thermo Scientific Multiskan Ascent) at 24 hrs and 48 hrs using the same plate at both time points. […] After 24 hrs and 48 hrs under continuous shaking in a Multiscan microplate reader, the optical density (OD) of the synthetic medium at 24 hours and 48 hours was measured (using the microplate reader) at a wavelength of 492 nm for each combination of bacterium/saccharide, and for each of their respective controls (i.e. which contained the particular bacterium but no saccharide).
(§4) The experiment was carried out three times for each combination of bacterium with saccharide, with each repeat being carried out on a different day (thus providing three biological replicas). The controls were also carried out three times, as above. The values shown are the average (mean) of the three single values obtained (as detailed above) for each combination of bacterium with saccharide, at 24 hrs and at 48 hrs.

[2] = test system: Actinomyces viscosus; details: for metabolic activity: OD 492 nm divided by OD of control (control = 1): A viscosus
Method: as §1, §2, §3, §4

[3] = test system: Aggregatibacter actinomycetemcomitans; details: A actinomycetemcomitans
Method: as §1, §2, §3, §4

[4] = test system: Capnocytophaga sputigena; details: C sputigena
Method: as §1, §2, §3, §4

[5] = test system: Fusobacterium nucleatum; details: F nucleatum
Method: as §1, §2, §3, §4

[6] = test system: Porphyromonas gingivalis; details: P gingivalis
Method: as §1, §2, §3, §4

[7] = test system: Prevotella intermedia; details: P intermedia
Method: as §1, §2, §3, §4

[8] = test system: S sanguinis
Method: as §1, §2, §3, §4

[9] = test system: Streptococcus gordonii; details: S gordonii
Method: as §1, §2, §3, §4

[10] = test system: Streptococcus mitis; details: S mitis
Method: as §1, §2, §3, §4

[11] = test system: Streptococcus mutans; details: for metabolic activity: OD 492 nm divided by OD of control (control = 1): S mutans
Method: as §1, §2, §3, §4

[12] = test system: Streptococcus salivarius; details: for metabolic activity: OD 492 nm divided by OD of control (control = 1): S salivarius
Method: as §1, §2, §3, §4

[13] = test system: Streptococcus sobrinus; details: S sobrinus
Method: as §1, §2, §3, §4

[14] = test system: Tannerella forsythia; details: T forsythia
Method: as §1, §2, §3, §4

[15] = test system: Veillonella parvula; details: V parvula
Method: as §1, §2, §3, §4

## OC[C@@H](O)[C@@H](O[C@H]1O[C@H](CO)[C@H](O)[C@H](O)[C@H]1O)[C@H](O)[C@@H](O)CO [D-Lactitol, 4-O-α-D-galactopyranosyl-D-glucitol]
[1]; 24 hrs
  increase in metabolic activity of A. naeslundii, in words: marked increase
  metabolic activity: OD 492 nm divided by OD of control (control = 1): 2.4399
[1]; 48 hrs
  metabolic activity: OD 492 nm divided by OD of control (control = 1): 3.3992
[2]; 24 hrs
  increase in metabolic activity of A. viscosus, in words: marked increase
  metabolic activity: OD 492 nm divided by OD of control (control = 1): 4.2553
[2]; 48 hrs
  metabolic activity: OD 492 nm divided by OD of control (control = 1): 4.9364
[3]; 24 hrs
  metabolic activity: OD 492 nm divided by OD of control (control = 1): 0.8916
[3]; 48 hrs
  metabolic activity: OD 492 nm divided by OD of control (control = 1): 0.8237
[4]; 24 hrs
  metabolic activity: OD 492 nm divided by OD of control (control = 1): 0.9032
[4]; 48 hrs
  metabolic activity: OD 492 nm divided by OD of control (control = 1): 1.0097
[5]; 24 hrs
  metabolic activity: OD 492 nm divided by OD of control (control = 1): 0.9115
[5]; 48 hrs
  metabolic activity: OD 492 nm divided by OD of control (control = 1): 0.7913
[6]; 24 hrs
  metabolic activity: OD 492 nm divided by OD of control (control = 1): 0.8216
[6]; 48 hrs
  metabolic activity: OD 492 nm divided by OD of control (control = 1): 1.0092
[7]; 24 hrs
  metabolic activity: OD 492 nm divided by OD of control (control = 1): 0.9834
[7]; 48 hrs
  metabolic activity: OD 492 nm divided by OD of control (control = 1): 0.9481
[8]; 24 hrs
  metabolic activity: OD 492 nm divided by OD of control (control = 1): 1.0364
[8]; 48 hrs
  metabolic activity: OD 492 nm divided by OD of control (control = 1): 1.0188
[9]; 24 hrs
  metabolic activity: OD 492 nm divided by OD of control (control = 1): 1.5368
[9]; 48 hrs
  metabolic activity: OD 492 nm divided by OD of control (control = 1): 1.7842
[10]; 24 hrs
  metabolic activity: OD 492 nm divided by OD of control (control = 1): 1.0047
[10]; 48 hrs
  metabolic activity: OD 492 nm divided by OD of control (control = 1): 0.9006
[11]; 24 hrs
  increase in metabolic activity of S. mutans, in words: borderline increase
  metabolic activity: OD 492 nm divided by OD of control (control = 1): 2.0160
[11]; 48 hrs
  metabolic activity: OD 492 nm divided by OD of control (control = 1): 2.7520
[12]; 24 hrs
  increase in metabolic activity of S. salivarius, in words: marked increase
  metabolic activity: OD 492 nm divided by OD of control (control = 1): 4.7396
[12]; 48 hrs
  metabolic activity: OD 492 nm divided by OD of control (control = 1): 5.1101
[13]; 24 hrs
  metabolic activity: OD 492 nm divided by OD of control (control = 1): 1.4178
[13]; 48 hrs
  metabolic activity: OD 492 nm divided by OD of control (control = 1): 1.3908
[14]; 24 hrs
  metabolic activity: OD 492 nm divided by OD of control (control = 1): 1.0703
[14]; 48 hrs
  metabolic activity: OD 492 nm divided by OD of control (control = 1): 1.1172
[15]; 24 hrs
  metabolic activity: OD 492 nm divided by OD of control (control = 1): 0.8079
[15]; 48 hrs
  metabolic activity: OD 492 nm divided by OD of control (control = 1): 0.6786

## OC[C@H]1O[C@@](O)(CO)[C@@H](O[C@H]2O[C@H](CO)[C@@H](O)[C@H](O)[C@H]2O)[C@@H]1O [D-Turanose, α-D-glucopyranosyl-(1→3)-α-D-fructofuranose]
[1]; 24 hrs
  metabolic activity: OD 492 nm divided by OD of control (control = 1): 2.1636
[1]; 48 hrs
  metabolic activity: OD 492 nm divided by OD of control (control = 1): 2.7551
[2]; 24 hrs
  metabolic activity: OD 492 nm divided by OD of control (control = 1): 2.2260
[2]; 48 hrs
  metabolic activity: OD 492 nm divided by OD of control (control = 1): 3.0809
[3]; 24 hrs
  metabolic activity: OD 492 nm divided by OD of control (control = 1): 1.0170
[3]; 48 hrs
  metabolic activity: OD 492 nm divided by OD of control (control = 1): 1.2549
[4]; 24 hrs
  metabolic activity: OD 492 nm divided by OD of control (control = 1): 0.9893
[4]; 48 hrs
  metabolic activity: OD 492 nm divided by OD of control (control = 1): 1.0899
[5]; 24 hrs
  metabolic activity: OD 492 nm divided by OD of control (control = 1): 1.3517
[5]; 48 hrs
  metabolic activity: OD 492 nm divided by OD of control (control = 1): 1.6086
[6]; 24 hrs
  metabolic activity: OD 492 nm divided by OD of control (control = 1): 0.8165
[6]; 48 hrs
  metabolic activity: OD 492 nm divided by OD of control (control = 1): 0.7822
[7]; 24 hrs
  metabolic activity: OD 492 nm divided by OD of control (control = 1): 1.1121
[7]; 48 hrs
  metabolic activity: OD 492 nm divided by OD of control (control = 1): 1.2058
[8]; 24 hrs
  metabolic activity: OD 492 nm divided by OD of control (control = 1): 1.3458
[8]; 48 hrs
  metabolic activity: OD 492 nm divided by OD of control (control = 1): 1.5207
[9]; 24 hrs
  metabolic activity: OD 492 nm divided by OD of control (control = 1): 1.7899
[9]; 48 hrs
  metabolic activity: OD 492 nm divided by OD of control (control = 1): 2.1615
[10]; 24 hrs
  metabolic activity: OD 492 nm divided by OD of control (control = 1): 1.2969
[10]; 48 hrs
  metabolic activity: OD 492 nm divided by OD of control (control = 1): 1.3856
[11]; 24 hrs
  metabolic activity: OD 492 nm divided by OD of control (control = 1): 1.4769
[11]; 48 hrs
  metabolic activity: OD 492 nm divided by OD of control (control = 1): 2.1955
[12]; 24 hrs
  metabolic activity: OD 492 nm divided by OD of control (control = 1): 1.1489
[12]; 48 hrs
  metabolic activity: OD 492 nm divided by OD of control (control = 1): 1.2834
[13]; 24 hrs
  metabolic activity: OD 492 nm divided by OD of control (control = 1): 1.6552
[13]; 48 hrs
  metabolic activity: OD 492 nm divided by OD of control (control = 1): 1.8299
[14]; 24 hrs
  metabolic activity: OD 492 nm divided by OD of control (control = 1): 1.0435
[14]; 48 hrs
  metabolic activity: OD 492 nm divided by OD of control (control = 1): 1.1254
[15]; 24 hrs
  metabolic activity: OD 492 nm divided by OD of control (control = 1): 0.8743
[15]; 48 hrs
  metabolic activity: OD 492 nm divided by OD of control (control = 1): 0.7770

Reference: patent US11419806B2, “Prebiotic oral care methods using a saccharide” (Colgate-Palmolive Company, priority 2013, dated 2022)
